Where “and” joins values, the source holds several entries; their conditions need not be identical. Identical values can stand only once.
Legend:
[1] = Stability in different humidity environments (sealed plastic bottles, 231 days of observation and testing); format: physicochemical; conditions: after 231 days
Procedure: This embodiment studies the stability of 1-(fluorosulfonyl)-2,3-dimethyl-1H-imidazolium trifluoromethanesulfonate in different humidity environments.
Experimental method: 1-(fluorosulfonyl)-2,3-dimethyl-1H-imidazolium trifluoromethanesulfonate was sampled (4.521 g, 4.298 g, 4.273 g) and placed into three plastic bottles (20 mL), which were then sealed with parafilm membrane. The three plastic bottles were placed on an experimental table (22° C.), in a refrigerator (4° C.) or in a dryer (22° C.).

[2] = Thermal stability on a melting point meter; format: physicochemical; conditions: temperature set at 129-240° C., heating gradient 1.0° C./min
Procedure: This embodiment studies the melting range and thermal stability of 1-(fluorosulfonyl)-2,3-dimethyl-1H-imidazolium trifluoromethanesulfonate
Experimental method: On a melting point meter, the temperature was set at 30-70° C. and the heating gradient at 0.5° C./min, the melting range of the substance of the embodiment was measured to be 62.1-64.2° C.: the temperature was set at 129-240° C. and the heating gradient at 1.0° C./min, the substance slowly bubbled at 135.2° C., and then turned from colorless to pale yellow at 176.5° C., turned to yellow at 185.6° C., turned to dark yellow at 189.9° C., and finally turned to black at 199.4° C.

[3] = Stability in deionized water, 19F-NMR tracking of the S-F signal; format: physicochemical; conditions: for S-F signal of the solution: deionized water, room temperature
Procedure: This embodiment studies the stability of 1-(fluorosulfonyl)-2,3-dimethyl-1H-imidazolium trifluoromethanesulfonate in deionized water
The experimental method: 1-(fluorosulfonyl)-2,3-dimethyl-1H-imidazolium trifluoromethanesulfonate ([…], 0.1 mmol) was dissolved in deionized water (1 mL) at room temperature to prepare a solution, and the pH value of the obtained solution was measured to be pH=1, ^19F-NMR tracked the change of the S—F signal of the solution, and the results are shown in Table 3.

Row | melting point | SMILES | other results
1 | 53 to 57 °C | Cc1ccc(C2CCCN2S(=O)(=O)F)cc1 (centres unmarked) | 
2 | 83 to 84 °C | O=S(=O)(F)N1CCC(c2ccccc2)CC1 | 
3 | 205 to 207 °C | O=C(NC1CCN(S(=O)(=O)F)CC1)c1ccccc1 | 
4 | 184 to 186 °C | COc1cc(C(=O)NC2CCCN(S(=O)(=O)F)C2)cc(OC)c1OC (centres unmarked) | 
5 | 246 to 248 °C | O=S(=O)(F)N1CCN(S(=O)(=O)F)CC1 | 
6 | 90 to 92 °C | O=S(=O)(F)NCCc1ccc(O)cc1 | 
7 | 81 to 84 °C | CC(C)(C)OC(=O)[C@H](NS(=O)(=O)F)c1ccccc1 | 
8 | 76 to 78 °C | O=S(=O)(F)N[C@@H]1CCC[C@H]1OCc1ccccc1 | 
9 | 95.3 to 96.6 °C | O=S(=O)(F)c1ccc(-c2ccc(S(=O)(=O)F)cc2)cc1 | 
10 | 80.1 to 81.1 °C | COc1cc(/C=C/c2ccc(OS(=O)(=O)F)cc2)cc(OC)c1 | 
11 | 92.8 to 94.2 °C | O=C(/C=C/c1ccc(S(=O)(=O)F)cc1)c1ccccc1 | 
12 | 150.3 to 152 °C | CC(=O)Nc1ccc(OS(=O)(=O)F)cc1 | 
13 | 163.8 to 165.2 °C | CC(=O)c1c(OS(=O)(=O)F)ccc2c(C)cc(=O)oc12 | 
14 | 85.3 to 87.9 °C | O=c1ccc2cc(OS(=O)(=O)F)ccc2o1 | 
15 | 64.6 to 66.2 °C | Cc1ccc2c(Cl)cc(Cl)c(OS(=O)(=O)F)c2n1 | 
16 | 86.9 to 87.9 °C | O=[N+]([O-])c1ccc(OS(=O)(=O)F)c2ncccc12 | 
17 | 50.8 to 51.8 °C | COc1cc(C=O)ccc1OS(=O)(=O)F | 

Row | SMILES | melting point | other results
18 | O=S(=O)(F)N1CCC(Cc2ccccc2)CC1 | 54 to 58 °C and 58 to 61 °C and 57 to 61 °C | 
19 | CC(C)c1n(S(=O)(=O)F)cc[n+]1C.O=S(=O)([O-])C(F)(F)F | 77 to 80 °C | 
20 | CN1CN(S(=O)(=O)F)c2ccccc21.O=S(=O)(O)C(F)(F)F | 121 to 125 °C | 
21 | Cc1n(S(=O)(=O)F)cc[n+]1C.O=S(=O)([O-])C(F)(F)F [Compound 4, 1-(fluorosulfonyl)-2,3-dimethyl-1H-imidazolium trifluoromethanesulfonate] | 58 to 60 °C | S-F signal in 19F NMR spectrum decreased by ([1]; placed in the dryer (22° C.)): by 4%; S-F signal in 19F NMR spectrum decreased by ([1]; placed in the refrigerator (4° C.)): decreased by 1%; S-F signal in 19F NMR spectrum decreased by ([1]; placed on the experimental table (22° C.)): by 25%; temperature at which the substance slowly bubbled [2]: 135.2 °C; temperature at which the substance turned from colorless to pale yellow [2]: 176.5 °C; temperature at which the substance turned to black [2]: 199.4 °C; temperature at which the substance turned to dark yellow [2]: 189.9 °C; temperature at which the substance turned to yellow [2]: 185.6 °C; pH value of the obtained solution ([3]; 36 mg, 0.1 mmol dissolved in deionized water (1 mL) at room temperature): 1; S-F signal of the solution ([3]; standing time 12 min): 0.77; S-F signal of the solution ([3]; standing time 30 min): 0.58; S-F signal of the solution ([3]; standing time 58 min): 0.35; S-F signal of the solution ([3]; standing time 2 h): 0.11; S-F signal of the solution ([3]; standing time 2 h 46 min): 0.05

Source: patent US11091442B2, “Fluorosulfonyl-containing compound, intermediate thereof, preparation method therefor and use thereof” (SHANGHAI INSTITUTE OF ORGANIC CHEMISTRY, CHINESE ACADEMY OF …, priority 2017, dated 2021)
